We go through one compound from US20210330606A1, “GLUCOSE CONSUMPTION ACCELERATOR AND GLYCOLYSIS ACCELERATOR” (SHINKO SANGYO Co., Ltd., priority 2018, published 2021).

Where “and” joins values, the source holds several entries; their conditions need not be identical. Identical values can stand only once.

Assay [1] has as its system Male mice of ICR strain. As to the kind of experiment: Blood glucose level of mice after oral glucose load with the drug. The assay is classed as in vivo, mouse. As to conditions: drug 50 mg/kg + glucose 2000 mg/kg oral. The method, then:
As a drug, 2-amino-1-phenylethanol was used. First, glucose (KANTO CHEMICAL CO., INC.) was dissolved in water for injection so as to achieve a concentration of 200 mg/ml, thereby preparing a glucose solution. Next, the drug was dissolved in the water for injection, and then the glucose solution was added thereto so that the drug and glucose had final concentrations of 2.5 mg/ml and 100 mg/ml, respectively, thereby preparing a sample. As a control of the drug, the culture was performed in the same manner except that 100 mg/ml glucose solution to which the drug was not added was used instead of the sample.
Male mice of 6-week-old ICR strain were purchased from Japan SLC, Inc., and preliminary rearing was carried out for about 1 week to check there was no abnormality in performance status. The conditions for the preliminary rearing were as follows: 4 mice each were housed in a polycarbonate cage, room temperature was 23° C.±3° C., and illumination time was 12 hours/day. Diets (mice and rat chow, product of Nosan Corporation) and drinking water (tap water) were freely ingested.
After the preliminary rearing, the mice were fasted for about 21 hours, and then body weight and blood glucose levels were measured. The mice were divided into the total of two groups, namely, a test group and a control group to ensure that there was no variation in blood glucose levels between the groups. The number of animals in each group was eight.
After the grouping, mice of the test group and the control group were orally administered a single dose of the sample and the control, respectively, using a gastric sonde to a dose volume of 20 ml/kg. That is, the test group mice were administered the drug and glucose at doses of 50 mg/kg and 2000 mg/kg, respectively, and the control group mice were administered glucose at a dose of 2000 mg/kg. With the time of the administration being regarded as 0 minutes, the blood glucose level was measured at 30 minutes, 60 minutes, 90 minutes, and 120 minutes. The blood glucose level was measured by using an ACCU-CHEK Aviva (Roche Diagnostics K.K.), blood was collected by inserting an injection needle into the tip of the tail, and the blood glucose level was measured for the collected blood.
As to the blood glucose levels at 0 minutes, 30 minutes, 60 minutes, 90 minutes and 120 minutes, the test group and the control group were compared by t-test. The significance levels were 5% and 1%.
In addition, the area under the curves (AUCs) were calculated for the measured blood glucose levels. The AUC was calculated by calculating the area surrounded by the measurement curve and a straight line parallel to the time axis and passing through the measured value at the time of administration in the graph with the measured value on the vertical axis and the time on the horizontal axis. Then, the test group and the control group were compared by t-test for AUC in the same manner as the comparison for the blood glucose level.

Assay [2] concerns rat-derived liver cancer cells (Ry121B, subculture line). The following applies: drug 1 mg/ml, control = 100.
Procedure: After the addition of the drug, the glucose concentration of each of the culture solutions was measured immediately after the start of the culture and after the completion of the culture. The glucose concentration was measured using a glucose assay kit (Waco). Then, the glucose concentration after the completion of the culture was divided by the glucose concentration immediately after the start of the culture (5.6 mmol per liter) to calculate the glucose consumption.
Assay [3] has as its system Py-3Y1-S2, TE-13, VERO and HepG2 cells. As to the kind of experiment: Lactate concentration after 2 to 3 days culture, lactate metabolism, mean over four cell types (Example 9). The assay is classed as cell-based, rat, human, African green monkey. As to conditions: drug 0.5 mg/ml, 2 to 3 days (48 to 72 hours) culture, mean of four experiments. The method, then:
(§1) After the addition of the drug, the culture solution was diluted so that the weight ratio of the culture solution to distilled water was 1:19, and the lactate concentration of the diluted culture solution was measured. The lactate concentration was measured using a lactate assay kit (product name: Lactate Assay Kit-WST, product of Dojindo Laboratories).
First, samples of 2-amino-1-cyclohexylethanol (2-amino-1-cyclohexyl EOH) and 2-amino-1-phenylethanol (2-amino-1-phenyl EOH) were prepared in the same manner as in Example 1. Four types of cells were used as in Example 8, and each of the cells was cultured under the same conditions as in Example 1. […] Thereafter, the culture time was lengthened to 2 to 3 days (48 to 72 hours) compared to Example 8. As a control 1, the culture was performed in the same manner except that distilled water to which the drug was not added was added to the culture solution instead of the sample. As a control 2, the culture was performed in the same manner as the […] except that a sample of biguanide prepared in the same manner as in Example 1 was added to the culture solution instead of the sample. Then, the lactate concentration in each sample was measured in the same manner as in Example 6. Each of the four cells was used for a total of four experiments.

For assay [4], the system named is rat-derived liver cancer cells (Ry121B, subculture line). Nature of the assay: Lactate concentration in culture solution of liver cancer cells (relative value, control = 100). The assay is classed as cell-based. The following applies: drug 1 mg/ml, control = 100 (FIG. 7B). As to the method: (§2) First, samples of 2-amino-1-cyclohexylethanol and 2-amino-1-phenylethanol were prepared in the same manner as in Example 1. The fibroblasts and the liver cancer cells were cultured under the same conditions as in Examples 1 and 5. […] As a control, the culture was performed in the same manner except that distilled water to which the drug was not added was added to the culture solution instead of the sample.
as §1

Assay [5] deals with Rat-derived fibroblasts (Py-3Y1-S2, subculture strain). As to the kind of experiment: Lactate concentration in culture solution of fibroblasts (relative value, control = 100). The assay is classed as cell-based. As to conditions: drug 1 mg/ml, control = 100 (FIG. 7A). As to the method: as §2, §1

In the case of `NCC(O)c1ccccc1` (centres unmarked) [2-amino-1-phenylethanol], the “AUC Calculated value (blood glucose)” value in assay [1] (individual mice, 0-120 minutes above value at administration) was 173 mg/dL·h and 142 mg/dL·h (2×) and 177 mg/dL·h and 171 mg/dL·h and 132 mg/dL·h and 127 mg/dL·h and 258 mg/dL·h. For the same compound, the blood glucose level is 46 mg/dL and 53 mg/dL and 61 mg/dL and 70 mg/dL and 54 mg/dL and 60 mg/dL and 86 mg/dL and 59 mg/dL in assay [1] (individual mice, 0 minutes (time of administration)); 177 mg/dL and 194 mg/dL (2×) and 222 mg/dL and 165 mg/dL and 202 mg/dL and 219 mg/dL and 256 mg/dL in assay [1] (individual mice, 30 minutes post-administration); 151 mg/dL and 136 mg/dL (2×) and 180 mg/dL and 171 mg/dL and 141 mg/dL and 160 mg/dL and 223 mg/dL in assay [1] (individual mice, 60 minutes post-administration); 121 mg/dL and 93 mg/dL and 138 mg/dL (2×) and 117 mg/dL and 91 mg/dL and 120 mg/dL and 176 mg/dL in assay [1] (individual mice, 90 minutes post-administration); 116 mg/dL and 91 mg/dL and 112 mg/dL and 113 mg/dL and 108 mg/dL and 79 mg/dL and 111 mg/dL and 134 mg/dL in assay [1] (individual mice, 120 minutes post-administration). The “AUC Mean value ± Standard error (blood glucose)” value in assay [1] (test group No. 1 to No. 8) was 165 ± 15 mg·h/dL. In addition, the “relative value of glucose consumption” value in assay [2] was “about 140”. Also, the “lactate concentration in the culture solution compared to control 1” value in assay [3] was “equivalent to that of control 1”. For the same compound, the “relative value of lactate concentration” value in assay [4] is on record as “about 135”; in assay [5], “about 185”.
